Source: the NIST ThermoML archive (doi:10.1021/je800348s)

Test: xn = mol fraction of the nth substance listed
Conditions: 101 kPa, Liquid; for mass density: Vibrating tube method

C1C[C@@H]2[C@H]3CC[C@H](C3)[C@@H]2C1 [exo-tetrahydrodicyclopentadiene] + CCCCCCCC
Conditions	mass density, 293.15 K [kg/m3]	mass density, 298.15 K [kg/m3]	mass density, 303.15 K [kg/m3]	mass density, 313.15 K [kg/m3]	viscosity, 293.15 K [mPa·s]	viscosity, 298.15 K [mPa·s]	viscosity, 303.15 K [mPa·s]	viscosity, 313.15 K [mPa·s]
x2 = 0	935.2	931.4	927.7	922.2	3.064	2.74	2.514	2.27
x2 = 0.117	906.1	901	898.5	893.5	2.353	2.109	1.945	1.769
x2 = 0.2275	879.1	874.5	871.8	866.6	1.836	1.665	1.553	1.421
x2 = 0.3384	852.4	848.1	845.4	839.8	1.47	1.351	1.272	1.166
x2 = 0.4431	827.7	823.6	820.7	814.9	1.216	1.12	1.056	0.9677
x2 = 0.5439	804.2	800.3	797.2	791	1.027	0.9508	0.8917	0.8212
x2 = 0.6417	781.8	778	774.8	768.3	0.8793	0.8194	0.7691	0.7085
x2 = 0.7361	760.4	756.6	753.2	746.4	0.7663	0.7198	0.6752	0.6197
x2 = 0.8265	740.3	736.5	732.9	725.6	0.6722	0.6345	0.5929	0.5424
x2 = 0.9143	721.1	717.1	713.3	705.6	0.5988	0.5681	0.5302	0.4839

C1C[C@@H]2[C@H]3CC[C@H](C3)[C@@H]2C1 [exo-tetrahydrodicyclopentadiene] + CCCCCCCCCC
Conditions	mass density, 293.15 K [kg/m3]	mass density, 298.15 K [kg/m3]	mass density, 303.15 K [kg/m3]	mass density, 313.15 K [kg/m3]	viscosity, 293.15 K [mPa·s]	viscosity, 298.15 K [mPa·s]	viscosity, 303.15 K [mPa·s]	viscosity, 313.15 K [mPa·s]
x2 = 0	935.2	931.4	927.7	922.2	3.064	2.74	2.514	2.27
x2 = 0.095	912.7	907.5	905.4	900.2	2.631	2.339	2.191	2.006
x2 = 0.1934	890	885.1	882.8	877.8	2.26	1.996	1.889	1.741
x2 = 0.2908	868.3	863.7	861.2	856.3	1.964	1.728	1.638	1.53
x2 = 0.3902	846.8	842.5	839.8	834.8	1.717	1.521	1.441	1.334
x2 = 0.4893	826	822	819	814	1.525	1.362	1.287	1.214
x2 = 0.6147	800.7	796.9	793.7	788.4	1.348	1.194	1.143	1.101
x2 = 0.6905	786	782.3	779	773.3	1.245	1.102	1.058	1.032
x2 = 0.7895	767.4	763.7	760.3	754.2	1.13	1.009	0.9726	0.9345
x2 = 0.8952	748.2	744.6	740.9	734.3	1.032	0.9181	0.8852	0.8537
